In US20250059208A1, “KRAS MODULATING COMPOUNDS” (priority 2023, published 2025):
pEC50, pIC50: −log10 of the molar value. Like-named read-outs stand apart in the source and are kept apart here.

Columns and labels:
[1] = test system: cellular pERK in Kuramochi (WT KRAS) cell-line; assay: Cell based pERK assay, Kuramochi; conditions: Kuramochi (WT KRAS) cells, 2 hours compound incubation, HTRF Phospho-ERK1/2
Protocol: (§1) Compounds were tested in a 384-well assay format for their ability to inhibit cellular pERK in Kuramochi (WT KRAS), MIA-PaCa-2 (KRAS-G12C), ASPC-1 (KRAS G12D), and NCI-H441 (KRAS-G12V) cell-lines. Compounds were serially diluted (1:3) in DMSO. On day −1, 80 μL of cells were plated per well in the 384 well tissue-culture plates (Greiner: Cat #781080) to seed 5000 cells per wells of AsPC-1 or 7500 cells of MIA-PaCa-2, NCI-H441, and Kuramochi cell lines in RPMI (Corning: Cat #10-040-CM) with 10% fetal bovine serum (FBS) (HyClone: Cat #SH30071-03) and IX penicillin-streptomycin-glutamate (PSG) (Corning: Cat #30-009-C1) for […] and Kuramochi cell lines and DMEM (Corning: Cat #15-018-CM) with 10% FBS and 1×PSG for MIA-PaCa-2 cell line. The plates were then incubated overnight at 37° C. and 5% CO2. On day 0, 400 nL of compound/well was added into the cell plates and mixed 5 times by pipetting using a Beckmann Biomek FX. The cell plates were then incubated for 2 hours at 37° C. and 5% CO2. HTRF Advanced Phospho-ERK1/2 (THR202/TYR204) Detection Kits (PerkinElmer: Cat #64AERPEG) were used to prepare the lysis and detection solution according to manufacturer protocol. Following the 2 hour incubation, 70 μL of medium was aspirated from the plates and 10 μL of lysis and detection solution was added to the plates using a Biotek EL406 washer and dispenser. Plates were sealed and stored overnight at room temperature. HTRF ratio (665 nm/615 nm) was read by Envision multimode reader (PerkinElmer) the next day. The TR-FRET ratios were normalized to a positive (saturating concentration of known inhibitor) and negative (DMSO) control and plotted against the log of compound concentration.

[2] = molecular target: GDP-loaded wild-type KRAS (WT) (Homo sapiens, UniProt P01116); assay: KRAS (GDP) biochemical TR-FRET probe displacement assay, WT; format: binding; conditions: 2 hours at room temperature
Protocol: (§2) • Compounds were tested for binding to GDP-loaded wild-type KRAS (WT), KRAS-G12C, KRAS-G12D, and KRAS-G12V in a 384-well assay format using a TR-FRET probe displacement assay in buffer consisting of 50 mM Hepes (pH 7.4), 150 mM NaCl. 5 mM MgCl2 and 0.005% Tween-20. 0.03 nM KRAS was used in this assay with 0.02 nM Eu-streptavidin and 12 nM Cy-5 labelled probe. Compounds were serially diluted (1:3) in DMSO. The LabCyte ECHO Acoustic dispenser was used to pre-spot the assay plates (384-well Non-Binding Surface plates, Corning, Catalog #3824) with 50 nL of compound. 5 μL of 2× enzyme concentration was added to the pre-spotted plates and incubated for 30 minutes before adding 5 μL of 2× concentration of Eu-streptavidin and Cy-5 labelled probe (10 μL final reaction volume). The plates were incubated at room temperature for 2 hours before measuring TR-FRET ratio (665 nm/615 nm) on the Envision multimode plate reader. The ratios were normalized to a positive (saturating concentration of known inhibitor) and negative (DMSO) control and plotted against the log of compound concentration. […]

GDP-loaded KRAS-G12D = GDP-loaded KRAS-G12D (Homo sapiens, UniProt P01116, G12D); assay: KRAS (GDP) biochemical TR-FRET probe displacement assay, G12D; format: binding; conditions: 2 hours at room temperature
Protocol: as §2

[3] = test system: cellular pERK in ASPC-1 (KRAS G12D) cell-line; assay: Cell based pERK assay, ASPC-1; conditions: ASPC-1 (KRAS G12D) cells, 2 hours compound incubation, HTRF Phospho-ERK1/2
Protocol: as §1

[4] = test system: cellular pERK in MIA-PaCa-2 (KRAS-G12C) cell-line; assay: Cell based pERK assay, MIA-PaCa-2; conditions: Homo sapiens; MIA-PaCa-2 (KRAS-G12C) cells, 2 hours compound incubation, HTRF Phospho-ERK1/2; read-out: MIAPaCa2 pERK EC50
Protocol: as §1

GDP-loaded KRAS-G12C = GDP-loaded KRAS-G12C (Homo sapiens, UniProt P01116, G12C); assay: KRAS (GDP) biochemical TR-FRET probe displacement assay, G12C; format: binding; conditions: 2 hours at room temperature
Protocol: as §2

GDP-loaded KRAS-G12V = GDP-loaded KRAS-G12V (Homo sapiens, UniProt P01116, G12V); assay: KRAS (GDP) biochemical TR-FRET probe displacement assay, G12V; format: binding; conditions: 2 hours at room temperature
Protocol: as §2

[5] = test system: cellular pERK in NCI-H441 (KRAS-G12V) cell-line; assay: Cell based pERK assay, NCI-H441; conditions: Homo sapiens; NCI-H441 (KRAS-G12V) cells, 2 hours compound incubation, HTRF Phospho-ERK1/2
Protocol: as §1

Chain of GDP-loaded KRAS-G12V (P01116 1-188 isoform P01116-2 G12V): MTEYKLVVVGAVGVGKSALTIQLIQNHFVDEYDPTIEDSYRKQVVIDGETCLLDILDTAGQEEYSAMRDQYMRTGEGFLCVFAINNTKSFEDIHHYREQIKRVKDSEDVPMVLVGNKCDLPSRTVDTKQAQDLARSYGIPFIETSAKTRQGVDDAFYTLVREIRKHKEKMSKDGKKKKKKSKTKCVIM
Chain of GDP-loaded KRAS-G12D (P01116 1-188 isoform P01116-2 G12D): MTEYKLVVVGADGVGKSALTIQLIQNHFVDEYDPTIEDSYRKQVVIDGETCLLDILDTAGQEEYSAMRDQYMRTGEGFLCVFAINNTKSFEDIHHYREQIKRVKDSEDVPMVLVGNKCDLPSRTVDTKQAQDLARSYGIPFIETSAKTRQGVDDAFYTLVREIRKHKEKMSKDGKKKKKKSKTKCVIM
Chain of GDP-loaded wild-type KRAS (WT) (P01116 1-188 isoform P01116-2): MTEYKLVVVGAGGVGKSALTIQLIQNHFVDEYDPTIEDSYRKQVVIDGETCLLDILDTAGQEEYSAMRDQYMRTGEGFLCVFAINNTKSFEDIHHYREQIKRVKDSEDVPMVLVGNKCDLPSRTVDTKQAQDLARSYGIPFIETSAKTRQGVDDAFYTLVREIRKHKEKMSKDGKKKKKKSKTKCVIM
Chain of GDP-loaded KRAS-G12C (P01116 1-188 isoform P01116-2 G12C): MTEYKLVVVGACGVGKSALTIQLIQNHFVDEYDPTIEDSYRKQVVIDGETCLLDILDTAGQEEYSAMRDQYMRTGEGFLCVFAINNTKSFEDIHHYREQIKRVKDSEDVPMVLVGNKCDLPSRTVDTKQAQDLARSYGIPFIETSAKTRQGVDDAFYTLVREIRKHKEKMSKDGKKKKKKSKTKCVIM

| Compound | pEC50 ([1]; 2 h) | pIC50 [2] | pIC50 (GDP-loaded KRAS-G12D) | pEC50 ([3]; Homo sapiens, ASPC1, 2 h) | pEC50 [4] | pIC50 (GDP-loaded KRAS-G12C) | pIC50 (GDP-loaded KRAS-G12V) | pEC50 [5] | pEC50 [1] | pEC50 ([3]; read-out: AsPC1 pERK EC50) |
| --- | --- | --- | --- | --- | --- | --- | --- | --- | --- | --- |
| Cc1cc(-c2c(Cl)cc3c(N4CC5(F)CCC(F)(C4)N5)nc(OC[C@@]45CCCN4C[C@H](F)C5)nc3c2F)c2cccnc2c1N [Example 2-9] | < 6.00 | < 7.00 | < 7.00 | < 6.00 | < 6.00 | < 7.00 | < 7.00 | < 6.00 | – | – |
| N#Cc1c(N)sc2c(F)ccc(-c3c(Cl)cc4c(N5CC6(F)CCC(F)(C5)N6)nc(OC[C@@]56CCCN5C[C@H](F)C6)nc4c3F)c12 [Example 7-3] | 8.28 | 9.20 | 7.90 | 7.40 | 7.77 | 8.77 | 8.29 | 8.32 | – | – |
| C#Cc1c(F)ccc2cc(N)cc(-c3ncc4c(N5CC6(F)CCC(F)(C5)N6)nc(OCC56CCCN5CCC6)nc4c3F)c12 [Example 5-3] | 7.94 | 8.18 | 7.37 | 6.12 | 7.81 | 8.17 | 7.58 | 6.56 | – | – |
| N#Cc1c(N)sc2c(F)ccc(-c3c(Cl)cc4c(N5CC6(F)CCC(F)(C5)N6)nc(OC[C@@]56CCCN5C[C@H](F)C6)nc4c3F)c12 (single isomer, unassigned) [Example 8-2] | – | 8.48 | 7.37 | – | 7.18 | 7.63 | 7.30 | 6.59 | 7.10 | 6.21 |
| Cc1cc(-c2ncc3c(N4CC5(F)CCC(F)(C4)N5)nc(OC[C@@]45CCCN4C[C@H](F)C5)nc3c2F)c2cccnc2c1N [Example 2-8] | < 6.00 | < 7.00 | < 7.00 | < 6.00 | < 6.00 | < 7.00 | < 7.00 | < 6.00 | – | – |
